Literature values in PubChem BioAssay AID1259409 (Chemical Carcinogenesis Research Information System (CCRIS), 2018).

Tested on: rodent chemically induced tumor inhibition, incidence and multiplicity
Experiment: CCRIS tumor inhibitor studies

SMILES: CC(=O)O[C@@H]1C(=O)O[C@H]2[C@@H]1OC(=O)[C@@H]2OC(C)=O
- tumour outcome (control, treated, inhibition, significance) (Carcinogen: 2-(ACETYLAMINO)FLUORENE, 6292-55-3, Dose [Inhibitor]: 1.2% IN DIET SIMULTANEOUSLY WITH CARCINOGEN (STUDY DURATION: 30 WK), Route [Inhibitor]: ORAL, Species: RAT, Strain/Sex: WISTAR/MALE, Target Tissue: Type of Lesion: URINARY BLADDER: TUMOR, Dose [Carcinogen]: 0.04% IN DIET SUPPLEMENTED WITH 1.4% D,L-TRYPTOPHAN, Promoter: NONE USED): 7/45 (20%), 11/40 (28%), -40%, not calculated
- tumour outcome (control, treated, inhibition, significance) (Carcinogen: 2-(ACETYLAMINO)FLUORENE, 6292-55-3, Dose [Inhibitor]: 1.2% IN DIET SIMULTANEOUSLY WITH CARCINOGEN (STUDY DURATION: 30 WK), Route [Inhibitor]: ORAL, Species: RAT, Strain/Sex: WISTAR/MALE, Target Tissue: Type of Lesion: URINARY BLADDER: TUMOR, Dose [Carcinogen]: 0.04% IN VITAMIN B6 DEFICIENT DIET, Promoter: NONE USED): 6/33 (18%), 2/38 (5%), 72%, not calculated
- tumour outcome (control, treated, inhibition, significance) (Carcinogen: 7,12-DIMETHYLBENZ[A]ANTHRACENE, 57-97-6, Dose [Inhibitor]: 400 MG/KG, 30 MIN BEFORE DMBA TREATMENT AND 3 HR AFTER DMBA TREATMENT (STUDY DURATION: 36 WK), Route [Inhibitor]: INTRAGASTRIC, Species: RAT, Strain/Sex: SPRAGUE-DAWLEY/FEMALE, Target Tissue: Type of Lesion: MAMMARY GLAND: TUMOR, Dose [Carcinogen]: 130 MG/KG ONCE, Promoter: NONE USED): 92%, 22%, 76%, not calculated

SMILES: O=C(/C=C/c1ccccc1)c1ccccc1O
- tumour outcome (control, treated, inhibition, significance) (Carcinogen: 4-NITROQUINOLINE-1-OXIDE, 56-57-5, Dose [Inhibitor]: 0, 500 PPM IN DIET FOR 10 WK BEGINNING 1 WK PRIOR TO CARCINOGEN DOSE (STUDY DURATION: 32 WK), Route [Inhibitor]: ORAL, Species: RAT, Strain/Sex: F344/MALE, Target Tissue: Type of Lesion: TONGUE: CARCINOMA, Dose [Carcinogen]: 20 PPM IN DRINKING WATER FOR 8 WK, Promoter: NONE USED): 9/15 (60%), 2/16 (13%), 78%, p<0.05
- tumour outcome (control, treated, inhibition, significance) (Carcinogen: 4-NITROQUINOLINE-1-OXIDE, 56-57-5, Dose [Inhibitor]: 0, 500 PPM IN DIET FOR 10 WK BEGINNING 1 WK PRIOR TO CARCINOGEN DOSE (STUDY DURATION: 32 WK), Route [Inhibitor]: ORAL, Species: RAT, Strain/Sex: F344/MALE, Target Tissue: Type of Lesion: TONGUE: PAPILLOMA, Dose [Carcinogen]: 20 PPM IN DRINKING WATER FOR 8 WK, Promoter: NONE USED): 4/15 (27%), 1/16 (6%), 78%, not significant
- tumour outcome (control, treated, inhibition, significance) (Carcinogen: 4-NITROQUINOLINE-1-OXIDE, 56-57-5, Dose [Inhibitor]: 0, 500 PPM IN DIET FOR 22 WK BEGINNING 1 WK POST CARCINOGEN TREATMENT (STUDY DURATION: 32 WK), Route [Inhibitor]: ORAL, Species: RAT, Strain/Sex: F344/MALE, Target Tissue: Type of Lesion: TONGUE: CARCINOMA, Dose [Carcinogen]: 20 PPM IN DRINKING WATER FOR 8 WK, Promoter: NONE USED): 9/15 (60%), 3/16 (19%), 68%, p<0.05
- tumour outcome (control, treated, inhibition, significance) (Carcinogen: 4-NITROQUINOLINE-1-OXIDE, 56-57-5, Dose [Inhibitor]: 0, 500 PPM IN DIET FOR 22 WK BEGINNING 1 WK POST CARCINOGEN TREATMENT (STUDY DURATION: 32 WK), Route [Inhibitor]: ORAL, Species: RAT, Strain/Sex: F344/MALE, Target Tissue: Type of Lesion: TONGUE: PAPILLOMA, Dose [Carcinogen]: 20 PPM IN DRINKING WATER FOR 8 WK, Promoter: NONE USED): 4/15 (27%), 0/16 (0%), 100%, p<0.05

SMILES: c1c[nH]cn1
- tumour outcome (control, treated, inhibition, significance) (Carcinogen: N-METHYL-N-NITROSOUREA, 684-93-5, Dose [Inhibitor]: 1000 MG/KG OF LOW (3%) FAT DIET BEGINNING 1 WK POST CARCINOGEN DOSE AND CONTINUING FOR DURATION OF STUDY (STUDY DURATION, Route [Inhibitor]: ORAL, Species: RAT, Strain/Sex: SPRAGUE-DAWLEY/FEMALE, Target Tissue: Type of Lesion: MAMMARY GLAND: TUMOR, Dose [Carcinogen]: 40 MG/KG ONCE, Promoter: NONE USED): 78%, 92%, -18%, not calculated

SMILES: Cc1csc(NC(=O)C(C(=O)OC(C)C)=C2SCS2)n1
- tumour outcome (control, treated, inhibition, significance) (Carcinogen: BENZO[A]PYRENE [50-32-8], Dose [Inhibitor]: 0, 150 MG/KG BW IN TRIOCTANOIN 1 D AND 2 HR PRIOR TO CARCINOGEN DOSE (STUDY DURATION: 21 WK), Route [Inhibitor]: GAVAGE, Species: MOUSE, Strain/Sex: CD-1/FEMALE, Target Tissue: Type of Lesion: SKIN: PAPILLOMA, Dose [Carcinogen]: 0.3 UMOL IN 0.2 ML ACETONE ONCE, Promoter: 12-O-TETRADECANOYLPHORBOL-13-ACETATE [16561-29-8]): 92%, 73%, 21%, not calculated
- tumour outcome (control, treated, inhibition, significance) (Carcinogen: BENZO[A]PYRENE [50-32-8], Dose [Inhibitor]: 150 MG/KG IN 10 µL TRIOCTANOIN ONCE 1 D AND 2 HR PRIOR TO CARCINOGEN DOSE (STUDY DURATION: 21 WK), Route [Inhibitor]: GAVAGE, Species: MOUSE, Strain/Sex: CD-1/FEMALE, Target Tissue: Type of Lesion: SKIN: PAPILLOMA, Dose [Carcinogen]: 0.3 UMOL IN 0.2 ML ACETONE ONCE (STUDY DURATION: 21 WK), Promoter: 12-O-TETRADECANOYLPHORBOL-13-ACETATE [16561-29-8]): 92%, 75%, 18%, not calculated
- tumour outcome (control, treated, inhibition, significance) (Carcinogen: VINYL CARBAMATE, 15805-73-9, Dose [Inhibitor]: 0, 150 MG/KG BW ONCE AT 2 HR AND 1 D PRIOR TO CARCINOGEN DOSE (STUDY DURATION: 22 WK), Route [Inhibitor]: GAVAGE, Species: MOUSE, Strain/Sex: CD-1/FEMALE, Target Tissue: Type of Lesion: SKIN: PAPILLOMA, Dose [Carcinogen]: 11.5 UMOL IN 0.2 ML ACETONE ONCE, Promoter: 12-O-TETRADECANOYLPHORBOL-13-ACETATE, 16561-29-8): 58%, 37%, 36%, not calculated

SMILES: CCCCCCCCCCCCCCCCCCCCCCCCCCCCOC(=O)/C=C/c1ccc(O)c(OC)c1
- tumour outcome (control, treated, inhibition, significance) (Carcinogen: 7,12-DIMETHYLBENZ[A]ANTHRACENE, 57-97-6, Dose [Inhibitor]: 0, 2 UMOL IN ACETONE/DMSO (9:1) 2/WK FOR 20 WK BEGINNING 1 WK POST CARCINOGEN DOSE (STUDY DURATION: 20 WK), Route [Inhibitor]: DERMAL, Species: MOUSE, Strain/Sex: ICR/FEMALE, Target Tissue: Type of Lesion: SKIN: PAPILLOMA, Dose [Carcinogen]: 50 UG ONCE, Promoter: 12-O-TETRADECANOYLPHORBOL-13-ACETATE, 16561-29-8): 100%, 20%, 80%, not calculated
